Measurements as given in patent US20220031800A1, “PEPTIDES FOR TREATING NON-EXUDATIVE MACULAR DEGENERATION AND OTHER DISORDERS OF THE EYE” (Allegro Pharmaceuticals, LLC, priority 2019, published 2022).
Where “and” joins values, the source holds several entries; their conditions need not be identical. Equal values may be shown once. Square brackets hold non-standard residues; d marks the D form. Peptide text beside a SMILES is read from it. Cya = N[C@@H](CS(=O)(=O)O)C(=O)O

Tested on: study eye of subjects with intermediate non-exudative AMD
Experiment: SD-OCT Analysis 2 (thickness, volume, map coverage of retinal layers)
Assay type: in vivo, human
Conditions: change from baseline at Week 32
Procedure: Numerous study assessments were conducted at various time points throughout the study. Included among these study assessments were; refractive eye examinations, determinations of BCVA AND low-luminance BCVA, Lanthony D-15 color vision test, measurement of intraocular pressure (IOP), Indirect ophthalmoscopy/dilated fundus examinations and spectral-domain optical coherence tomography (SD-OCT). Also, blood and saliva samples were obtained from each subject for genetic analysis. The above-listed study assessments were performed at the time points indicated in Table 1, below: The OCT scans were analyzed by two (2) unrelated experts. In Analysis #2, the OCT images of study eyes were analyzed to determine mean thickness and mean volume of numerous retinal subfields and layer segments at baseline and at Week 12 for sham eyes and at baseline and at Week 32 for risuteganib eyes, to document any significant differences between groups of eyes based on baseline measurements or changes from baseline in those measurements. In addition to the quantitative analysis of OCT images, OCT Analysis #2 included qualitative assessment of the OCT images to identify GA, pseudodrusen, and disruption of the ELM and EZ layers. FIGS. 9A, 9B and 9C illustrate the level of varying pathology within the ELM based on quantitative mapping that were also assessed, with FIG. 9A (left) showing no ELM disruption, FIG. 9B (center) showing segmental disruption, and FIG. 9C showing diffuse disruption.

[1] = risuteganib nonresponder eyes, n = 12
[2] = risuteganib responder eyes, n = 12
[3] = risuteganib super-responder eyes, n = 8

C[C@@H](O)[C@H](NC(=O)[C@H](CS(=O)(=O)O)NC(=O)CNC(=O)[C@H](CCCNC(=N)N)NC(=O)CN)C(=O)N1CCC[C@H]1C(=O)O [risuteganib, Glycyl-L-arginylglycyl-3-sulfo-L-alanyl-L-threonyl-L-proline] (H-GRG[Cya]TP-OH)
Change in mean thickness, Inner retina mid subfield [1]: 2.274 μm | Change in mean thickness, ONL-EZ central subfield [1]: −6.486 μm | Change in mean thickness, ONL-EZ mid subfield [1]: −4.522 μm | Change in mean thickness, ONL-RPE central subfield [1]: −7.877 μm | Change in mean thickness, ONL-RPE foveal center [1]: −7.626 μm | Change in mean thickness, ONL-RPE mid subfield [1]: −6.320 μm | Change in mean thickness, RPE-BM central subfield [1]: −0.118 μm | Change in mean thickness, RPE-BM foveal center [1]: −3.740 μm | Change in mean thickness, RPE-BM mid subfield [1]: 1.114 μm | Change in mean thickness, Total retinal central subfield [1]: −5.981 μm | Change in mean thickness, Total retinal foveal center [1]: −9.112 μm | Change in mean thickness, Total retinal mid subfield [1]: −4.046 μm | Change in volume, ELM-EZ central subfield [1]: −0.001 mm^3 | Change in volume, ELM-EZ mid subfield [1]: 0.002 mm^3 | Change in volume, ELM-RPE [1]: 0.009 mm^3 | Change in volume, ELM-RPE central subfield [1]: −0.002 mm^3 | Change in volume, ELM-RPE mid subfield [1]: −0.003 mm^3 | Change in volume, EZ-RPE [1]: 0.005 mm^3 | Change in volume, EZ-RPE central subfield [1]: −0.001 mm^3 | Change in volume, EZ-RPE mid subfield [1]: −0.006 mm^3 | Change in volume, ONL-EZ central subfield [1]: −0.005 mm^3 | Change in volume, ONL-EZ mid subfield [1]: −0.014 mm^3 | Change in volume, ONL-RPE [1]: −0.026 mm^3 | Change in volume, ONL-RPE central subfield [1]: −0.006 mm^3 | Change in volume, ONL-RPE mid subfield [1]: −0.020 mm^3 | Change in volume, RPE-BM [1]: 0.037 mm^3 | Change in volume, RPE-BM central subfield [1]: 0.000 mm^3 | Change in volume, RPE-BM mid subfield [1]: 0.004 mm^3 | Change in volume, Total retinal [1]: 0.091 mm^3 | Change in volume, Total retinal central subfield [1]: −0.004 mm^3 | Change in volume, Total retinal mid subfield [1]: −0.012 mm^3 | Map coverage, 0 μm EZ [1]: 1.469% | Map coverage, 0 μm RPE-BM [1]: 1.465% | Map coverage, 10 μm EZ [1]: 1.332% | Map coverage, 20 μm EZ [1]: 1.288% | Map coverage, 50 μm RPE-BM [1]: −1.794% | Map coverage, 150 μm RPE-BM [1]: 2.143% | Map coverage, 250 μm RPE-BM [1]: 0.000% | Change in mean thickness, ELM-EZ central subfield [2]: −2.322 μm | Change in mean thickness, ELM-EZ mid subfield [2]: −0.967 μm | Change in mean thickness, ELM-RPE central subfield [2]: −3.102 μm | Change in mean thickness, ELM-RPE foveal center [2]: −0.000 μm and 0.000 μm | Change in mean thickness, ELM-RPE mid subfield [2]: −2.141 μm | Change in mean thickness, EZ-RPE central subfield [2]: −0.779 μm | Change in mean thickness, EZ-RPE foveal center [2]: 0.975 μm | Change in mean thickness, EZ-RPE mid subfield [2]: −1.174 μm | Change in mean thickness, Inner retina central subfield [2]: 5.864 μm | Change in mean thickness, Inner retina mid subfield [2]: 5.512 μm | Change in mean thickness, ONL-EZ central subfield [2]: −5.775 μm | Change in mean thickness, ONL-EZ mid subfield [2]: −5.386 μm | Change in mean thickness, ONL-RPE central subfield [2]: −6.555 μm | Change in mean thickness, ONL-RPE foveal center [2]: 0.650 μm | Change in mean thickness, ONL-RPE mid subfield [2]: −6.561 μm | Change in mean thickness, RPE-BM central subfield [2]: −8.238 μm | Change in mean thickness, RPE-BM foveal center [2]: −12.512 μm | Change in mean thickness, RPE-BM mid subfield [2]: −5.287 μm | Change in mean thickness, Total retinal central subfield [2]: −0.691 μm | Change in mean thickness, Total retinal foveal center [2]: 0.804 μm | Change in mean thickness, Total retinal mid subfield [2]: −1.049 μm | Change in volume, ELM-EZ central subfield [2]: −0.002 mm^3 | Change in volume, ELM-EZ mid subfield [2]: −0.003 mm^3 | Change in volume, ELM-RPE [2]: 0.086 mm^3 | Change in volume, ELM-RPE central subfield [2]: −0.002 mm^3 | Change in volume, ELM-RPE mid subfield [2]: −0.007 mm^3 | Change in volume, EZ-RPE [2]: −0.059 mm^3 | Change in volume, EZ-RPE central subfield [2]: −0.001 mm^3 | Change in volume, EZ-RPE mid subfield [2]: −0.004 mm^3 | Change in volume, ONL-EZ central subfield [2]: −0.004 mm^3 | Change in volume, ONL-EZ mid subfield [2]: −0.017 mm^3 | Change in volume, ONL-RPE [2]: 0.009 mm^3 | Change in volume, ONL-RPE central subfield [2]: −0.005 mm^3 | Change in volume, ONL-RPE mid subfield [2]: −0.021 mm^3 | Change in volume, RPE-BM [2]: −0.049 mm^3 | Change in volume, RPE-BM central subfield [2]: −0.007 mm^3 | Change in volume, RPE-BM mid subfield [2]: −0.017 mm^3 | Change in volume, Total retinal [2]: −0.188 mm^3 | Change in volume, Total retinal central subfield [2]: 0.000 mm^3 | Change in volume, Total retinal mid subfield [2]: −0.004 mm^3 | Map coverage, 0 μm EZ [2]: 3.679% | Map coverage, 0 μm RPE-BM [2]: 1.099% | Map coverage, 10 μm EZ [2]: 3.699% | Map coverage, 20 μm EZ [2]: 3.574% | Map coverage, 50 μm RPE-BM [2]: −3.494% | Map coverage, 150 μm RPE-BM [2]: 3.335% | Map coverage, 250 μm RPE-BM [2]: −0.011% | Change in mean thickness, ELM-EZ central subfield [3]: −1.658 μm | Change in mean thickness, ELM-EZ mid subfield [3]: −1.049 μm | Change in mean thickness, ELM-RPE central subfield [3]: −3.461 μm | Change in mean thickness, ELM-RPE foveal center [3]: 2.925 μm
